According to patent publication US9695155B2, “Herbicidal substituted pyrimidinyloxy benzene compounds” (E. I. DU PONT DE NEMOURS AND COMPANY, priority 2013, dated 2017):

Key:
morningglory = test: Test A preemergence; format: in vivo, Ipomoea spp.
Outline: (§1)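 Injury scores run from 0, no effect, to 100, complete control, judged by eye against untreated plants roughly 10 days after treatment. Chemicals carried a surfactant in a non-phytotoxic solvent and went onto loam–sand soil preemergence or onto one- to two-leaf seedlings postemergence.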

pigweed [1] = test: Test A preemergence; format: in vivo, Amaranthus retroflexus
Outline: as §1

wheat [2] = test: Test A preemergence; format: in vivo, Triticum aestivum
Outline: as §1

pigweed [3] = test: Test A postemergence; format: in vivo, Amaranthus retroflexus
Outline: as §1

wheat [4] = test: Test A postemergence; format: in vivo, Triticum aestivum
Outline: as §1

sedge, umbrella = test: Test B flooded paddy test; format: in vivo, Cyperus difformis; settings: Flood, 250 g ai/ha, 0 to 100 scale where 0 is no effect and 100 is complete control
Outline: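 Post-emergence paddy-water application at the 2-leaf stage, with 3 cm flood kept for the whole test. Response was judged visually relative to controls after 13 to 15 greenhouse days, 0 indicating no effect and 100 complete control.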

large (Lg) crabgrass = test: Test C postemergence; format: in vivo, Digitaria sanguinalis
Outline: (§2)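 Rated visually on 0–100 (100 = complete control) after 13–15 days under glass. Treatments went onto freshly seeded loam/sand soil or onto emerged plants at the 1- to 4-leaf stage, using a surfactant-containing solvent formulation.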

giant foxtail = test: Test C postemergence; format: in vivo, Setaria faberii
Outline: as §2

johnsongrass = test: Test C postemergence; format: in vivo, Sorghum halepense
Outline: as §2

yellow nutsedge = test: Test C postemergence; format: in vivo, Cyperus esculentus
Outline: as §2

soybean = test: Test C postemergence; format: in vivo, Glycine max
Outline: as §2

oilseed rape = test: Test C postemergence; format: in vivo, Brassica napus
Outline: as §2

velvetleaf = test: Test C postemergence; format: in vivo, Abutilon theophrasti
Outline: as §2

[5] = 1000 g ai/ha, 0 to 100 scale, 0 no effect, 100 complete control, approx. 10 days
[6] = 1000 g ai/ha, 0 to 100 scale, 0 no effect, 100 complete control
[7] = 8 g ai/ha, postemergence, 0 is no effect, 100 is complete control
[8] = 16 g ai/ha, postemergence, 0 is no effect, 100 is complete control
[9] = 31 g ai/ha, postemergence, visual rating, scale 0 to 100 (0 no effect, 100 complete control), 13 to 15 days

Structure (SMILES): CC(=NO)c1cn(-c2c(Br)cccc2Oc2ncc(Cl)cn2)nn1 [Compound 115]
- Morningglory plant response rating (morningglory; [5]): 50
- Pigweed plant response rating (pigweed [1]; [5]): 100
- Wheat plant response rating (wheat [2]; [5]): 40
- Plant response rating, Pigweed (pigweed [3]; [6]): 100
- Plant response rating, Wheat (wheat [4]; [6]): 90
- Plant response rating, Sedge, Umbrella (sedge, umbrella): 20
- Plant response rating (0 to 100), Crabgrass, Large (large (Lg) crabgrass; [7]): 5
- Plant response rating (0 to 100), Crabgrass, Large (large (Lg) crabgrass; [8]): 5
- Plant response rating (0 to 100), Foxtail, Giant (giant foxtail; [7]): 5
- Plant response rating (0 to 100), Foxtail, Giant (giant foxtail; [8]): 5
- Plant response rating (0 to 100), Johnsongrass (johnsongrass; [7]): 5
- Plant response rating (0 to 100), Johnsongrass (johnsongrass; [8]): 5
- Plant response rating (0 to 100), Nutsedge, Yellow (yellow nutsedge; [7]): 0
- Plant response rating (0 to 100), Nutsedge, Yellow (yellow nutsedge; [8]): 0
- Plant response rating (0 to 100), Soybean (soybean; [7]): 5
- Plant response rating (0 to 100), Soybean (soybean; [8]): 10
- Plant response rating (0 to 100), Oilseed Rape (oilseed rape; [7]): 0
- Plant response rating (0 to 100), Oilseed Rape (oilseed rape; [8]): 0
- Plant response rating (0 to 100), Velvetleaf (velvetleaf; [7]): 5
- Plant response rating (0 to 100), Velvetleaf (velvetleaf; [8]): 5

Structure (SMILES): Fc1cccc(Oc2ncc(Cl)cn2)c1-n1cc(Br)cn1 [Compound 178, 2-[2-(4-bromo-1H-pyrazol-1-yl)-3-fluorophenoxy]-5-chloropyrimidine]
- Morningglory plant response rating (0 to 100 scale) (morningglory; 125 g ai/ha): 10
- pest or weed control at 500 g/ha (morningglory; Ipomoea, pre-emergence, 240 h, 500 g ai/ha, 0 to 100 scale where 0 is no effect and 100 is complete control, read-out: Morningglory plant response rating): 90%
- Pigweed plant response rating (0 to 100 scale) (pigweed [1]; 125 g ai/ha): 100
- pest or weed control at 500 g/ha (pigweed [1]; Amaranthus retroflexus, pre-emergence, 240 h, 500 g ai/ha, 0 to 100 scale where 0 is no effect and 100 is complete control, read-out: Pigweed plant response rating): 100%
- Wheat plant response rating (0 to 100 scale) (wheat [2]; 125 g ai/ha): 0
- plant injury at 500 g/ha (wheat [2]; Triticum aestivum, pre-emergence, 240 h, 500 g ai/ha, 0 to 100 scale where 0 is no effect and 100 is complete control, read-out: Wheat plant response rating): 40%
- pest or weed control at 500 g/ha (pigweed [3]; Amaranthus retroflexus, post-emergence, 500 g ai/ha, 0 to 100 scale where 0 is no effect and 100 is complete control, read-out: Plant response rating, Pigweed): 100%
- pest or weed control at 125 g/ha (pigweed [3]; Amaranthus retroflexus, post-emergence, 240 h, 125 g ai/ha, 0 to 100 scale where 0 is no effect and 100 is complete control, read-out: Pigweed plant response rating): 100%
- plant injury at 125 g/ha (wheat [4]; Triticum aestivum, post-emergence, 240 h, 125 g ai/ha, 0 to 100 scale where 0 is no effect and 100 is complete control, read-out: Wheat plant response rating): 40%
- plant injury at 500 g/ha (wheat [4]; Triticum aestivum, post-emergence, 240 h, 500 g ai/ha, 0 to 100 scale where 0 is no effect and 100 is complete control, read-out: Plant response rating, Wheat): 80%
- pest or weed control at 250 g/ha (sedge, umbrella; Cyperus difformis, read-out: Plant response rating, Sedge, Umbrella): 0%
- pest or weed control at 16 g/ha (large (Lg) crabgrass; Digitaria sanguinalis, post-emergence, 16 g ai/ha, postemergence, 0 is no effect, 100 is complete control, read-out: Plant response rating (0 to 100), Crabgrass, Large): 5%
- pest or weed control at 31 g/ha (large (Lg) crabgrass; Digitaria sanguinalis, post-emergence, 31 g ai/ha, postemergence, visual rating, scale 0 to 100 (0 no effect, 100 complete control), 13 to 15 days, read-out: Crabgrass, Large plant response rating): 10%
- pest or weed control at 125 g/ha (large (Lg) crabgrass; Digitaria sanguinalis, post-emergence, 125 g ai/ha, postemergence, visual rating, scale 0 to 100 (0 no effect, 100 complete control), read-out: Plant response rating, Crabgrass, Large): 10%
- pest or weed control at 62 g/ha (large (Lg) crabgrass; Digitaria sanguinalis, post-emergence, Postemergence, 62 g ai/ha, scale 0 to 100 (0 no effect, 100 complete control), read-out: Plant response rating, Crabgrass, Large): 5%
- pest or weed control at 16 g/ha (giant foxtail; Setaria faberi, post-emergence, 16 g ai/ha, postemergence, 0 is no effect, 100 is complete control, read-out: Plant response rating (0 to 100), Foxtail, Giant): 5%
- pest or weed control at 31 g/ha (giant foxtail; Setaria faberi, post-emergence, 31 g ai/ha, postemergence, visual rating, scale 0 to 100 (0 no effect, 100 complete control), 13 to 15 days, read-out: Foxtail, Giant plant response rating): 5%
- pest or weed control at 125 g/ha (giant foxtail; Setaria faberi, post-emergence, 125 g ai/ha, postemergence, visual rating, scale 0 to 100 (0 no effect, 100 complete control), read-out: Plant response rating, Foxtail, Giant): 25%
- pest or weed control at 62 g/ha (giant foxtail; Setaria faberi, post-emergence, Postemergence, 62 g ai/ha, scale 0 to 100 (0 no effect, 100 complete control), read-out: Plant response rating, Foxtail, Giant): 5%
- Johnsongrass plant response rating (johnsongrass; [9]): 5
- pest or weed control at 16 g/ha (johnsongrass; Sorghum halepense, post-emergence, 16 g ai/ha, postemergence, 0 is no effect, 100 is complete control, read-out: Plant response rating (0 to 100), Johnsongrass): 0%
- pest or weed control at 125 g/ha (johnsongrass; Sorghum halepense, post-emergence, 125 g ai/ha, postemergence, visual rating, scale 0 to 100 (0 no effect, 100 complete control), read-out: Plant response rating, Johnsongrass): 35%
- pest or weed control at 62 g/ha (johnsongrass; Sorghum halepense, post-emergence, Postemergence, 62 g ai/ha, scale 0 to 100 (0 no effect, 100 complete control), read-out: Plant response rating, Johnsongrass): 15%
- Nutsedge, Yellow plant response rating (yellow nutsedge; [9]): 5
- pest or weed control at 16 g/ha (yellow nutsedge; Cyperus, post-emergence, 16 g ai/ha, postemergence, 0 is no effect, 100 is complete control, read-out: Plant response rating (0 to 100), Nutsedge, Yellow): 5%
- pest or weed control at 125 g/ha (yellow nutsedge; Cyperus, post-emergence, 125 g ai/ha, postemergence, visual rating, scale 0 to 100 (0 no effect, 100 complete control), read-out: Plant response rating, Nutsedge, Yellow): 10%
- pest or weed control at 62 g/ha (yellow nutsedge; Cyperus, post-emergence, Postemergence, 62 g ai/ha, scale 0 to 100 (0 no effect, 100 complete control), read-out: Plant response rating, Nutsedge, Yellow): 5%
- Soybean plant response rating (soybean; [9]): 70
- Soybean plant response rating (crop injury, 0-100 scale) at 16 g/ha (soybean; Glycine max, post-emergence, 16 g ai/ha, postemergence, 0 is no effect, 100 is complete control): 50%
- Soybean plant response rating (crop injury, 0-100 scale) at 125 g/ha (soybean; Glycine max, post-emergence, 125 g ai/ha, postemergence, visual rating, scale 0 to 100 (0 no effect, 100 complete control), read-out: Plant response rating, Soybean): 95%
- Soybean plant response rating (crop injury, 0-100 scale) at 62 g/ha (soybean; Glycine max, post-emergence, Postemergence, 62 g ai/ha, scale 0 to 100 (0 no effect, 100 complete control)): 65%
- Oilseed Rape plant response rating (oilseed rape; [9]): 85
- plant injury at 16 g/ha (oilseed rape; Brassica napus, post-emergence, 16 g ai/ha, postemergence, 0 is no effect, 100 is complete control, read-out: Plant response rating (0 to 100), Oilseed Rape): 70%
- plant injury at 125 g/ha (oilseed rape; Brassica napus, post-emergence, 125 g ai/ha, postemergence, visual rating, scale 0 to 100 (0 no effect, 100 complete control), read-out: Plant response rating, Oilseed Rape): 98%
- plant injury at 62 g/ha (oilseed rape; Brassica napus, post-emergence, Postemergence, 62 g ai/ha, scale 0 to 100 (0 no effect, 100 complete control), read-out: Plant response rating, Oilseed Rape): 90%
- Velvetleaf plant response rating (velvetleaf; [9]): 70
- pest or weed control at 16 g/ha (velvetleaf; Abutilon theophrasti, post-emergence, 16 g ai/ha, postemergence, 0 is no effect, 100 is complete control, read-out: Plant response rating (0 to 100), Velvetleaf): 50%
- pest or weed control at 125 g/ha (velvetleaf; Abutilon theophrasti, post-emergence, 125 g ai/ha, postemergence, visual rating, scale 0 to 100 (0 no effect, 100 complete control), read-out: Plant response rating, Velvetleaf): 100%
- pest or weed control at 62 g/ha (velvetleaf; Abutilon theophrasti, post-emergence, Postemergence, 62 g ai/ha, scale 0 to 100 (0 no effect, 100 complete control), read-out: Plant response rating, Velvetleaf): 85%
